From US8822495B2, “Azacyclyl-substituted aryldihydroisoquinolinones, process for their preparation and their use as medicaments” (Sanofi, priority 2006, dated 2014) come the findings set out here.

As usually defined, the IC50 is the concentration needed to halve the response being measured.

T1 sequence (Q99705 whole entry): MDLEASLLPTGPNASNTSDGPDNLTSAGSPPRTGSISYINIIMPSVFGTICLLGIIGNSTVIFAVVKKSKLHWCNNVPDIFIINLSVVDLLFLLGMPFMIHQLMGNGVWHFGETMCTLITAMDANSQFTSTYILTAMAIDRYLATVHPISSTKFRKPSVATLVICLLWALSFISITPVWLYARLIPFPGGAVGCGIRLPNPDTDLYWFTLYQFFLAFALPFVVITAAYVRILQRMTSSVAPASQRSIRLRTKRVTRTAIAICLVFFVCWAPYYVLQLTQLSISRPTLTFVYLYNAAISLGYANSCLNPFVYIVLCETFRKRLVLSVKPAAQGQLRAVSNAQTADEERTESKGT

This experiment concerns the target T1, human MCH receptor (Homo sapiens, UniProt Q99705).
T1 construct: expressed in transfected cells
In words: functional IC50 of MCH1R antagonists: cellular calcium flux (FLIPR), called calcium immobilization assay. The class given is cell-based. As to conditions: calcium flux after addition of agonist (MCH), recombinant HEK293 cell line expressing the human MCH receptor. The source says: Influence on the MCH receptor in vitro; determination of functional IC50 values of MCH1R antagonists
Cloning of the cDNA for the human MCH receptor, preparation of a recombinant HEK293 cell line which expresses the human MCH receptor, and functional measurements with the recombinant cell line took place in analogy to the description by Audinot et al. (J. Biol. Chem. 276, 13554-13562, 2001). A difference from the reference was, however, the use of the plasmid pEAK8 from EDGE Biosystems (USA) for the construction of the expression vector. The host used for the transfection was a transformed HEK cell line named “PEAK Stable Cells” (likewise from EDGE Biosystems). Functional measurements of the cellular calcium flux after addition of agonist (MCH) in the presence of ligand of the invention took place with the aid of the FLIPR apparatus from Molecular Devices (USA), using protocols of the apparatus manufacturer. The compounds of the invention show a significant inhibition (>30%) of the signal induced by the agonist at a concentration of 100 μM, preferably at 10 μM, particularly preferably at 1 μM, very particularly preferably at 100 nM and even more particularly preferably at 10 nM.
(Calcium assays in cells follow changes in intracellular calcium, usually with a dye or a luminescent sensor.)
As to `CO[C@@H]1CN(c2ccc(-n3ccc4cc(OC[C@H]5CCCO5)ccc4c3=O)cc2F)C[C@H]1N(C)C` (relative stereo) [Example 353, 2-[4-((3R*,4R*)-3-Dimethylamino-4-methoxy-pyrrolidin-1-yl)-3-fluorophenyl]-6-[(R)-1-(tetrahydrofuran-2-yl)methoxy]-2H-isoquinolin-1-one], the IC50 turned out to be 23.8 µM.
For `CCCCOc1ccc2c(c1)CCN(c1ccc(N3CCC(N(C)C)C3)c(Cl)c1)C2=O` (stereo not drawn) [Example 1, 6-Butoxy-2-[3-chloro-4-(3-dimethylaminopyrrolidin-1-yl)phenyl]-3,4-dihydro-2H-isoquinolin-1-one] the value was 0.99 µM; for `CCCCOc1ccc2c(c1)CCN(c1ccc(N3CC[C@@H](N(C)CCS(C)(=O)=O)C3)c(F)c1)C2=O` [Example 14, 6-Butoxy-2-(3-fluoro-4-{(R)-3-[(2-methanesulfonylethyl)methylamino]pyrrolidin-1-yl}phenyl)-3,4-dihydro-2H-isoquinolin-1-one], 1.07 µM.
Then `CC1CCN(c2ccc3c(c2)CCN(c2ccc(N4CC[C@@H](N(C)C)C4)c(F)c2)C3=O)CC1` [Example 24, 2-[4-((R)-3-Dimethylaminopyrrolidin-1-yl)-3-fluorophenyl]-6-(4-methylpiperidin-1-yl)-3,4-dihydro-2H-isoquinolin-1-one], with 1.19 µM.
Take `CCCCOc1ccc2c(c1)CCN(c1ccc(N3CCC(N4CCN(C(C)=O)CC4)C3)cc1)C2=O` (stereo not drawn) [Example 39, 2-{4-[3-(4-Acetylpiperazin-1-yl)pyrrolidin-1-yl]phenyl}-6-butoxy-3,4-dihydro-2H-isoquinolin-1-one]: the IC50 was determined as 0.23 µM.
As for `CCCCOc1ccc2c(c1)CCN(c1ccc(N3CCC(NCCCN4CCCC4=O)C3)cc1)C2=O` (stereo not drawn) [Example 45], the half-inhibitory concentration (IC50) stood at 0.22 µM.
Then `CN[C@@H]1CCN(c2ccc(N3CCc4cc(OC5CC(C)OC5=O)ccc4C3=O)cc2F)C1` (stereo partly drawn) [Example 84], with 6.24 µM.
As to `CC(C)C(=O)Nc1ccc2c(c1)CCN(c1ccc(N3CC[C@@H](N(C)C)C3)c(F)c1)C2=O` [Example 95], the 50% inhibitory concentration (IC50) turned out to be 3.41 µM.
For `CN(C)[C@@H]1CCN(c2ccc(N3CCc4cc(N5C[C@H]6CCCN6C5=O)ccc4C3=O)cc2F)C1` [Example 99] the value was 1.68 µM; for `CC(O)CCNc1ccc2c(c1)CCN(c1ccc(N3CC[C@@H](N(C)C)C3)c(F)c1)C2=O` (stereo partly drawn) [Example 106], 4.21 µM.
For the compound `CC1=C(C)C(=O)N(c2ccc3c(c2)CCN(c2ccc(N4CC[C@@H](N(C)C)C4)c(F)c2)C3=O)C1` [Example 112], the IC50 worked out at 7.54 µM.
Regarding `C[C@@H](O)C#Cc1ccc2c(=O)n(-c3ccc(N4CC[C@@H](N5CCCC5)C4)c(F)c3)ccc2c1` [Example 136], the IC50 came out at 0.1 µM.
For `O=c1c2ccc(OCC(O)C(F)(F)F)cc2ccn1-c1ccc(N2CC[C@@H](N3CCCC3)C2)c(F)c1` (stereo partly drawn) [Example 154] the value was 0.18 µM.
As for `CC1(O)CCCC1Oc1ccc2c(=O)n(-c3ccc(N4CC[C@@H](N5CCCC5)C4)c(F)c3)ccc2c1` (stereo partly drawn) [Example 168], the IC50 amounted to 1.39 µM.
For `CC[C@H](O)COc1ccc2c(c1)CCN(c1ccc(N3CC[C@]4(CCN(CCCF)C4)C3)cc1)C2=O` [Example 176] the value was 0.31 µM; for `CC1CCOC1COc1ccc2c(=O)n(-c3ccc(N4CC[C@@H](N5CCCC5)C4)c(F)c3)ccc2c1` (stereo partly drawn) [Example 202], 0.5 µM; for `CC(C)(O)CN1CC[C@]2(CCN(c3ccc(N4CCc5cc(OC[C@@H]6CCCO6)ccc5C4=O)cc3)C2)C1` [Example 206], 0.2 µM.
For `O=c1c2ccc(OCCCF)cc2ccn1-c1ccc(N2CC[C@]3(CCN(CCCF)C3)C2)cc1` [Example 210] the value was 0.36 µM; for `CN(C)[C@@H]1CCN(c2ccc(N3CCc4cc(OC5CCC(O)C5)ccc4C3=O)cc2F)C1` (stereo partly drawn) [Example 219], 1.46 µM; for `CN(C)[C@@H]1CCN(c2ccc(N3CCc4cc(OCC5(C)COC5)ccc4C3=O)cc2F)C1` [Example 224], 1.42 µM.
Then `O=C1CCCN1CCOc1ccc2c(=O)n(-c3ccc(N4CC[C@@H](N5CCCC5)C4)c(F)c3)ccc2c1` [Example 246], with 13 µM; and `CC(O)CCOc1ccc2c(=O)n(-c3ccc(N4CC[C@@H](N5CCCC5)C4)c(F)c3)ccc2c1` (stereo partly drawn) [Example 251], with 0.41 µM.
As for `O=C1c2ccc(OC[C@@H]3CCCO3)cc2CCN1c1ccc(N2CCC(N3CC4CCC4C3)C2)c(F)c1` (stereo partly drawn) [Example 264], the IC50 was 0.59 µM.
Then `CC[C@H](O)COc1ccc2c(c1)CCN(c1ccc(N3CCC4CN(C)CC43)cc1)C2=O` (stereo partly drawn) [Example 287], with 1.96 µM; and `COCCCNC1CCN(c2ccc(-n3ccc4cc(OC[C@H]5CCCO5)ccc4c3=O)cc2F)C1` (stereo partly drawn) [Example 303], with 0.38 µM; and `CC1(O)CCN(C2CCN(c3ccc(-n4ccc5cc(OC[C@H]6CCCO6)ccc5c4=O)cc3F)C2)CC1` (stereo partly drawn) [Example 321], with 0.15 µM.
For `CN1C[C@H]2CCN(c3ccc(-n4ccc5cc(OC[C@@H]6CCCO6)ccc5c4=O)cc3)[C@H]2C1` [Example 324] the value was 0.2 µM.
Then `COc1cc(-n2ccc3cc(OC[C@@H]4CCCO4)ccc3c2=O)ccc1N1CCCN(C)CC1` [Example 326], with 0.22 µM; and `CC(=O)N(C)C1CCCN(c2ccc(-n3ccc4cc(OC[C@@H]5CCCO5)ccc4c3=O)cc2)C1` (stereo partly drawn) [Example 327], with 3.69 µM.
Turning to `O=c1c2ccc(OC[C@H]3CCCO3)cc2ccn1-c1ccc(N2CCC3(CNCCO3)C2)c(F)c1` (stereo partly drawn) [Example 341], the IC50 was 1.6 µM.
Consider `CN1CC2(CCN(c3ccc(-n4ccc5cc(OC[C@H]6CCCO6)ccc5c4=O)cc3F)C2)C1` [Example 354], for which the IC50 came to 0.22 µM.
Then `CN(C)C1(C)CCN(c2ccc(-n3ccc4cc(OC[C@H]5CCCO5)ccc4c3=O)cc2F)C1` (stereo partly drawn) [Example 356, 2-[4-(3-Dimethylamino-3-methyl-pyrrolidin-1-yl)-3-fluorophenyl]-6-[(R)-1-(tetrahydrofuran-2-yl)methoxy]-2H-isoquinolin-1-one], with 1.14 µM; and `CN(C)[C@@H]1CCN(c2ccc(N3CCc4cc(C#CC(C)(C)O)sc4C3=O)cc2)C1` [Example 361], with 2.56 µM.
